According to patent publication US9382258B2, “Agents for treating pain and uses thereof” (AbbVie Inc., priority 2012, dated 2016):

Assays:
human Cav2.2 = molecular target: T1, human Cav2.2 (Homo sapiens, UniProt Q00975); assay: Calcium flux (FLIPR, Calcium 4 dye) in IMR32 cells endogenously expressing human Cav2.2; assay type: cell-based; details: 60 minute pre-incubation, 2 μM nifedipine to block L-type channels, depolarized with 80 mM KCl, 5 mM CaCl2, average of n≥2 runs unless marked *
T1 construct: cells endogenously expressing human Cav2.2; endogenous in cells; host or cells: IMR32 cells
T1 sequence (Q00975 whole entry): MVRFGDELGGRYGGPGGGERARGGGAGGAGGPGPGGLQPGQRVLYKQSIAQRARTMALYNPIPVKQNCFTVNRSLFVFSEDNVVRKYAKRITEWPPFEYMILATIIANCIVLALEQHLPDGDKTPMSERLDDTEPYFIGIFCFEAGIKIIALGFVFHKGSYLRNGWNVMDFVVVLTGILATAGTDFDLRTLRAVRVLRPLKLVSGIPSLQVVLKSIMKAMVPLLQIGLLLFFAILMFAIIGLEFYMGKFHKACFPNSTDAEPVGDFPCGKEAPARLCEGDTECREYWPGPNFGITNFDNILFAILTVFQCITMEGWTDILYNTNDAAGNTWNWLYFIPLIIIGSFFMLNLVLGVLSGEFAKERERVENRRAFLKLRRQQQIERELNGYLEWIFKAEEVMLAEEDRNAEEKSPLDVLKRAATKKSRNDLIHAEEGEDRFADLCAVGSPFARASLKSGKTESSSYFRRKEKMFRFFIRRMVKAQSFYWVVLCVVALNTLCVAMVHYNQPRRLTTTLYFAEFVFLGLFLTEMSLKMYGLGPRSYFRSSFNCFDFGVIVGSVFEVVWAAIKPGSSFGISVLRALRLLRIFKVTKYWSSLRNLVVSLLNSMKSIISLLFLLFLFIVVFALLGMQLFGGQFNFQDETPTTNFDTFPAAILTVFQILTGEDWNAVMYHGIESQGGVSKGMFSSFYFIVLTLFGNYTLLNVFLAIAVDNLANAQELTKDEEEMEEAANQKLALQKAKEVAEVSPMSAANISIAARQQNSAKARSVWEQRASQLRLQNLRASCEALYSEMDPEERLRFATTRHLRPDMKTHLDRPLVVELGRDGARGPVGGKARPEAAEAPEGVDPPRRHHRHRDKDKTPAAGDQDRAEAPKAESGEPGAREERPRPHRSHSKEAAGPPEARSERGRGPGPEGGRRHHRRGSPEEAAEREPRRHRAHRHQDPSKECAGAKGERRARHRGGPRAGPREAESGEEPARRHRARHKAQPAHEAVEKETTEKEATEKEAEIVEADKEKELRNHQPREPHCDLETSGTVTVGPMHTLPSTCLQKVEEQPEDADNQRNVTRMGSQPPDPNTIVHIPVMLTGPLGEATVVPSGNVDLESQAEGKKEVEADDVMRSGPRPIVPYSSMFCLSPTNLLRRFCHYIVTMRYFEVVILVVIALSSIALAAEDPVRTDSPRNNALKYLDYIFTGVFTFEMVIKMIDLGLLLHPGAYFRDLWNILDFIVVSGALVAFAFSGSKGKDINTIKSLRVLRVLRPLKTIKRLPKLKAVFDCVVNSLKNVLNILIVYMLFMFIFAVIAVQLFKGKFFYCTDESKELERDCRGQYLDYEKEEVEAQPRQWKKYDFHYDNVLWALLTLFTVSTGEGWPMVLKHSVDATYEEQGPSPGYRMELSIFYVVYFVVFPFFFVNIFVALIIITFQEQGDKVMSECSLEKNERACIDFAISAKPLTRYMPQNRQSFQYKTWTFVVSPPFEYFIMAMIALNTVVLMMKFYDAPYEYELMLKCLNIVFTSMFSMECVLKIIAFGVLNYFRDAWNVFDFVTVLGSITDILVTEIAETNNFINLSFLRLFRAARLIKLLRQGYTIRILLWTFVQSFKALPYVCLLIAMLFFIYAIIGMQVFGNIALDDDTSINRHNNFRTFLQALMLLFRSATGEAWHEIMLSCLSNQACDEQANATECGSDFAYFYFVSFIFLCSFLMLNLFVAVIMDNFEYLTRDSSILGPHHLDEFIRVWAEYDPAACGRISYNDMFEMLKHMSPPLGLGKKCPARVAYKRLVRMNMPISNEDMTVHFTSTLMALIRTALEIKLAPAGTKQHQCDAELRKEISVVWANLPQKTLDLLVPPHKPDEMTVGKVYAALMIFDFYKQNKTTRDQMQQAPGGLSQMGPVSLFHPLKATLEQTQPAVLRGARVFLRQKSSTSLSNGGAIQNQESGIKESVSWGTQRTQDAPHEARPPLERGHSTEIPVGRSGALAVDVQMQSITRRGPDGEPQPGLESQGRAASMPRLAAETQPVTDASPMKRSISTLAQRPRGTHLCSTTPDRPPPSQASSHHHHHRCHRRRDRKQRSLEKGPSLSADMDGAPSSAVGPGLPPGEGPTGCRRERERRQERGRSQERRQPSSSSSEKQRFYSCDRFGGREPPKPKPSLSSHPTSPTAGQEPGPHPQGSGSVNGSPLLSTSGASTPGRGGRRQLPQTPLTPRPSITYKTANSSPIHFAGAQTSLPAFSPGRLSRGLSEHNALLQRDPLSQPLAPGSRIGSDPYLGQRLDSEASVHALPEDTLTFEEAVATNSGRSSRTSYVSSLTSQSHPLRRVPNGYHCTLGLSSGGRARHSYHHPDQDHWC
T1 sequence (P54284 whole entry partner): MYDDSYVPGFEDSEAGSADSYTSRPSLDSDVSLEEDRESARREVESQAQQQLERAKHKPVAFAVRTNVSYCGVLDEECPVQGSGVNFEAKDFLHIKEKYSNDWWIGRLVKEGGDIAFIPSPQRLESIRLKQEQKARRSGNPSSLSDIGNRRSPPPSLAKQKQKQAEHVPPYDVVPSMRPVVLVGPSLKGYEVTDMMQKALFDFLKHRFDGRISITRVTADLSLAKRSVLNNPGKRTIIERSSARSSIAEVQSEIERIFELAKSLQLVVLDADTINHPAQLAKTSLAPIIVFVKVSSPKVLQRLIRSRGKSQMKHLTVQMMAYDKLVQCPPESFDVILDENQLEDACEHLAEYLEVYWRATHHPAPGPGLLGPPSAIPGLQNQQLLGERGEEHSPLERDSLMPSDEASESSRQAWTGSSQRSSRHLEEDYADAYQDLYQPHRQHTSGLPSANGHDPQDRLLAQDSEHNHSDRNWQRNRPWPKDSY
T1 sequence (P54289 25-956 partner limits assumed): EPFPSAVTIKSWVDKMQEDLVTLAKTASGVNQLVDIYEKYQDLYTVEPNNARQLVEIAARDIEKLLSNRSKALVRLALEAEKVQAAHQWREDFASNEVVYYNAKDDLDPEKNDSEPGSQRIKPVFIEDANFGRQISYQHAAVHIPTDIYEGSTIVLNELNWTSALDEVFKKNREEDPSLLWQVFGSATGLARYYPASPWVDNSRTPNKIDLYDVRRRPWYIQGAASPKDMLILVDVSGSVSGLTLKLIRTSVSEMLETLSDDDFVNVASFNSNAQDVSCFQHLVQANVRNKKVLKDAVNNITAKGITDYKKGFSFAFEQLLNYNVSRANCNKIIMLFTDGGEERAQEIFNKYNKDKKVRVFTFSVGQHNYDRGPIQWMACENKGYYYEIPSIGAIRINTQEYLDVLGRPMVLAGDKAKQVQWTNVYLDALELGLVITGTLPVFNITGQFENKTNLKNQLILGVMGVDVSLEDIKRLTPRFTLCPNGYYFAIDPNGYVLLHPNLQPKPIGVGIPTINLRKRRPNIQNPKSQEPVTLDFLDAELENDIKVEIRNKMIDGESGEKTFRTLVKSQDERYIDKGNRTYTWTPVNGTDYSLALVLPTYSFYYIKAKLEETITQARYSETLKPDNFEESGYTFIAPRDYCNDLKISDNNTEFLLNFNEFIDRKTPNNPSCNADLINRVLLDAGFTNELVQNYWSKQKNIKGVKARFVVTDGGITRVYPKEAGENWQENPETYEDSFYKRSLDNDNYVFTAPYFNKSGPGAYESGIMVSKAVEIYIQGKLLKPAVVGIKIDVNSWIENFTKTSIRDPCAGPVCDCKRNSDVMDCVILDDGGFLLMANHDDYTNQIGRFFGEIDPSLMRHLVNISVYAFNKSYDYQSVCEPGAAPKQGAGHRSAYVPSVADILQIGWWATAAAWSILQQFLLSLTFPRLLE
T1 sequence (P54289 957-1103 partner limits assumed): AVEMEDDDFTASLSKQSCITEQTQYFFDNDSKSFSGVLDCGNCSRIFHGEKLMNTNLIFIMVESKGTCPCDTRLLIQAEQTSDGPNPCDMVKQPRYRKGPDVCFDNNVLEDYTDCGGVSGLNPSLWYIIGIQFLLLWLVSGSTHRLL
Method: Compounds were tested for effect on calcium flux in cells endogenously expressing human Cav2.2. Specifically, IMR32 cells endogenously expressing human Cav2.2 were assayed for Ca^2+ influx using a no-wash calcium indicator dye (Calcium 4 dye: Molecular Probes) and FLIPR technology (Lubin, M L; et al. Assay and Drug Development Technologies, 2006, 4(6), 689-694). The IMR32 cells were maintained in MEM media containing 10% (v/v) FBS, 1% (v/v) antibiotic/antimitotic, 1% (v/v) sodium pyruvate and 1% (v/v) MEM NEAA. Following dissociation in 0.05% (v/v) trypsin/EDTA, cells were seeded into black 1×96-well plates (Corning Cellbind) at a density of 1−1.2×10^5 cells/well and incubated in the maintenance media above for 48 hours at 37° C. Immediately prior to performing the assay the media was removed and cells were loaded for 1.5 hours with 1× Calcium 4 dye prepared in HBSS (137 mM NaCl, 5.4 mM KCl, 0.25 mM Na2HPO4, 0.44 mM KH2PO4, 1.3 mM CaCl2, 1 mM MgSO4, 4.2 mM NaHCO3) containing HEPES pH 7.4 at room temperature. After dye loading and a subsequent 60 minute pre-incubation with compounds (full log dilutions from 10 μM to 0.1 nM) in the presence of 1.3 mM CaCl2 and 2 μM nifedipine to block endogenous L-type channels, the external Ca^2+ concentration was increased to 5 mM CaCl2 and the cells concomitantly depolarized with 80 mM KCl to assay channel activity.
To determine the IC50 values, the percent inhibition of the compound at each concentration was determined relative to the activity in the absence of inhibitor, and data was fitted using non-linear regression sigmoidal dose response curve analysis with GraphPad Prism®. Unless otherwise indicated (*), the reported values are average values from at least two runs (i.e., n≧2).

[1] = system: Sprague Dawley rats (CCI neuropathic pain); assay: Chronic constriction injury (CCI) model of neuropathic pain, tactile allodynia by von Frey filaments; assay type: in vivo, rat; details: male Sprague Dawley rats, 10 mg/kg orally in 10% dimethyl sulfoxide/polyethylene glycol, mechanical allodynia 60 minutes after administration, calculated from log g paw withdrawal threshold
Method: Test compounds can be evaluated for analgesic effect in an in vivo model of neuropathic pain. Specifically, animals were prepared for testing, by use of a surgical procedure that induces neuropathic pain in one paw. IACUC guidelines for rodent survival surgery were followed. All surgical procedures were conducted on a clean, uncluttered surgical station. The area was wiped with a 70% ethanol solution before and after use. All instruments were sterilized by either autoclave or chemical sterilant (such as 2% glutaraldehyde>10 hours). Surgeons wore sterile gloves (for the initial procedure), clean lab coat or scrubs, hairnet or cap, and a half-mask respirator (when not working under a hood). Surgeons thoroughly washed their hands prior to donning sterile gloves. Gloves were disinfected in-between animals by cleansing with povidone iodine, chlorhexidine or 70% alcohol for at least 30 seconds. If multiple surgeries were performed, the instruments were cleaned and sterilized between procedures with hot glass beads (>10 seconds). To prevent thermal or chemical burns, the instruments were cooled by rinsing in sterile saline before use.
Male, Sprague Dawley® rats, 175-200 g were used for surgeries. To minimize post-operative dehydration/maintain blood volume during the surgery, warmed sterile saline or Lactate Ringers solution at 10-15 mL/kg was administered subcutaneously immediately before or after surgery. This facilitates better renal function and presumably anesthesia product excretion post surgery. For all surgical procedures, anesthesia was induced with 4-5% isoflurane. Anesthesia was maintained during surgery with 1-3% isoflurane. Following induction, the surgical site was carefully shaved and the exposed area was aseptically prepared with povidone-iodine scrub solution and 70% ethanol 2-3 times.
Chronic constriction injury (CCI), a model of neuropathic pain, was produced by following the method of Bennett and Xie (Bennett, G., et al. Pain, 1988, 33, 87-107). After site sterilization and anesthetic procedures outline above were completed, a 1.5 cm incision is made at the mid-thigh level to expose the biceps femoris and gluteous superficialis (right side), which were then separated by blunt dissection. The common sciatic nerve was exposed, isolated, and loosely ligated by four 5-0 chromic gut ligatures with <1 mm spacing between each. The surgical site was closed in layers—muscle is closed with 6.0 absorbable sutures, and the skin closed with wound clips. Animals were allowed to recover on a warming plate and were returned to their home cages when fully ambulatory. Animals were not be used for testing until at least 10 days following surgery.
To measure mechanical sensitivity, tactile allodynia was measured using calibrated von Frey filaments (Stoelting, Wood Dale, Ill.) as described by Chaplan et al. (Chaplan S., et al. J of Neuroscience Methods 1994, 53, 55-63). Filament strengths used were: 0.4, 0.6, 1.0, 2, 4, 6, 8, and 15 g. Rats were placed into inverted individual plastic containers (20×12.5×20 cm) on top of a suspended wire mesh grid, and acclimated to the test chambers for at least 20 minutes. Filaments were applied perpendicular to the mid-plantar paw surface with enough force to cause slight buckling and held in place for 6-8 seconds. Positive responses included an abrupt withdrawal of the paw from the stimulus or flinching behavior immediately following removal of the stimulus. The maximum force applied was 15 g. The 50% paw withdrawal threshold (PWT) was calculated in grams (g) using the up-down method of Dixon (Dixon W. Ann Rev Pharmacol Toxicol 1980, 20, 441-462). […] All compounds were orally administered at 10 mg/kg in 10% dimethyl sulfoxide/polyethylene glycol at a volume of 2.0 mL/kg, and mechanical allodynia was determined 60 minutes following compound administration
The data are reported as log g values and the percentage of maximum possible effect (% MPE) is calculated using log g values with the Formula: […]

Row | Compound | IC50 (human Cav2.2) [nM] | % MPE [1] [%]
1 | O=C(c1cccc(C(F)(F)F)c1)N1CCCN2C[C@H](Oc3cnc(C4CC4)cn3)C[C@H]2C1 [Example 7, [(8R,9aS)-8-[(5-cyclopropylpyrazin-2-yl)oxy]hexahydro-1H-pyrrolo[1,2-a][1,4]diazepin-2(3H)-yl][3-(trifluoromethyl)phenyl]methanone] | 1660 | 44
2 | O=C1CCN(Cc2cccc(C(F)(F)F)c2)C[C@@H]2C[C@@H](Oc3cnc(C4CC4)cn3)CN12 [Example 42, (8R,9aS)-8-[(5-cyclopropylpyrazin-2-yl)oxy]-2-[3-(trifluoromethyl)benzyl]octahydro-5H-pyrrolo[1,2-a][1,4]diazepin-5-one] | 920 | 27
3 | O=C(c1ccc(C(F)(F)F)cc1)N1CCCN2C[C@H](Oc3cnc(C4CC4)cn3)C[C@H]2C1 [Example 13, [(8R,9aS)-8-[(5-cyclopropylpyrazin-2-yl)oxy]hexahydro-1H-pyrrolo[1,2-a][1,4]diazepin-2(3H)-yl][4-(trifluoromethyl)phenyl]methanone] | 880 | 40
4 | FC(F)(F)c1ccc(N2CCCN3C[C@H](Oc4cnc(C5CC5)cn4)C[C@H]3C2)nc1 [Example 19, (8R,9aS)-8-[(5-cyclopropylpyrazin-2-yl)oxy]-2-[5-(trifluoromethyl)pyridin-2-yl]octahydro-1H-pyrrolo[1,2-a][1,4]diazepane] | 1210 | 36
5 | O=C(c1cccc(C(F)(F)F)c1)N1CCC(=O)N2C[C@H](Oc3cnc(C4CC4)cn3)C[C@H]2C1 [Example 32, (8R,9aS)-8-[(5-cyclopropylpyrazin-2-yl)oxy]-2-[3-(trifluoromethyl)benzoyl]octahydro-5H-pyrrolo[1,2-a][1,4]diazepin-5-one] | 1720 | 46
6 | O=C1[C@H]2C[C@@H](Oc3cnc(C4CC4)cn3)CN2CCCN1Cc1ccc(C(F)(F)F)cc1 [Example 24, (8R,9aR)-8-[(5-cyclopropylpyrazin-2-yl)oxy]-2-[4-(trifluoromethyl)benzyl]octahydro-1H-pyrrolo[1,2-a][1,4]diazepin-1-one] | 2940 | 
7 | O=C1[C@@H]2C[C@@H](Oc3cnc(C4CC4)cn3)CN2CCCN1Cc1ccc(C(F)(F)F)cc1 [Example 23, (8R,9aS)-8-[(5-cyclopropylpyrazin-2-yl)oxy]-2-[4-(trifluoromethyl)benzyl]octahydro-1H-pyrrolo[1,2-a][1,4]diazepin-1-one] | 980 | 
8 | O=C(c1ccc(F)cc1)N1CCCN2C[C@H](Oc3cnc(C4CC4)cn3)C[C@H]2C1 [Example 8, [(8R,9aS)-8-[(5-cyclopropylpyrazin-2-yl)oxy]hexahydro-1H-pyrrolo[1,2-a][1,4]diazepin-2(3H)-yl](4-fluorophenyl)methanone] | 3040 | 
9 | O=C1[C@H](Oc2ccc(C(F)(F)F)cn2)C[C@H]2CN(S(=O)(=O)c3ccc(C(F)(F)F)cc3)CCCN12 [Example 6, (8R,9aS)-2-{[4-(trifluoromethyl)phenyl]sulfonyl}-8-{[5-(trifluoromethyl)pyridin-2-yl]oxy}octahydro-7H-pyrrolo[1,2-a][1,4]diazepin-7-one] | 910 | 

Second part, led by results:

Row | IC50 (human Cav2.2) [nM] | Compound | % MPE [1] [%]
10 | 1650 | O=C1CCN(Cc2ccc(OC(F)(F)F)cc2)C[C@@H]2C[C@@H](Oc3cnc(C4CC4)cn3)CN12 [Example 44, (8R,9aS)-8-[(5-cyclopropylpyrazin-2-yl)oxy]-2-[4-(trifluoromethoxy)benzyl]octahydro-5H-pyrrolo[1,2-a][1,4]diazepin-5-one] | 48
11 | 2520 | O=C1CCN(c2ccc(C(F)(F)F)cn2)C[C@@H]2C[C@@H](Oc3cnc(C4CC4)cn3)CN12 [Example 47, (8R,9aS)-8-[(5-cyclopropylpyrazin-2-yl)oxy]-2-[5-(trifluoromethyl)pyridin-2-yl]octahydro-5H-pyrrolo[1,2-a][1,4]diazepin-5-one] | 73
12 | 3430 | O=C1CCN(c2ccc(C(F)(F)F)cn2)C[C@H]2C[C@@H](Oc3cnc(C4CC4)cn3)CN12 [Example 55, (8R,9aR)-8-[(5-cyclopropylpyrazin-2-yl)oxy]-2-[5-(trifluoromethyl)pyridin-2-yl]octahydro-5H-pyrrolo[1,2-a][1,4]diazepin-5-one] | 
13 | 3170 | O=C1CCN(Cc2ccc(OC(F)(F)F)cc2)C[C@@H]2C[C@H](Oc3cnc(C4CC4)cn3)CN12 [Example 59, (8S,9aS)-8-[(5-cyclopropylpyrazin-2-yl)oxy]-2-[4-(trifluoromethoxy)benzyl]octahydro-5H-pyrrolo[1,2-a][1,4]diazepin-5-one] | 
